From patent publication US20080096811A1, “[…] VPAC2 RECEPTOR PEPTIDE AGONISTS” (Eli Lilly and Company, published 2008)
*1 amine or outer side, *2 acyl side, *3 side chain or, on linkers, in order; H or OH if unused. Where a SMILES comes first, the peptide text is derived from it. Where no end group is shown, it is not given here. Side-chain parts run from the residue outwards. The star is where a group is joined. γGlu = O=C(O)[C@H](CCC(=O)[*:2])N[*:1]; Palmitoyl = CCCCCCCCCCCCCCCC(=O)*; Hexanoyl = CCCCCC(=O)*

T1: human VPAC2 (Homo sapiens, UniProt P41587)
T1 construct: expressed in transfected cells
T1 sequence (P41587 24-438): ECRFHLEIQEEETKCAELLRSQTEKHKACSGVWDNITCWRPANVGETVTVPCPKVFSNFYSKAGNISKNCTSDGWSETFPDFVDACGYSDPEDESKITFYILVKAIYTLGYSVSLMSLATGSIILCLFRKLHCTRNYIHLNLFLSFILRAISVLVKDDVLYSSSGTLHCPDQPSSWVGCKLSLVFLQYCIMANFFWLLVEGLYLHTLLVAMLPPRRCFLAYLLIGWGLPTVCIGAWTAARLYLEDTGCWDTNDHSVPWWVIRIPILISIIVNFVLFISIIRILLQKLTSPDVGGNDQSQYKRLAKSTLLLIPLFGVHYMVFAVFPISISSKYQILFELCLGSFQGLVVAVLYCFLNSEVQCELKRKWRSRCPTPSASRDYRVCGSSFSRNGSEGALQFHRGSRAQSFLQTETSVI

T2: human VPAC1 (Homo sapiens, UniProt P32241)
T2 sequence (P32241 31-457): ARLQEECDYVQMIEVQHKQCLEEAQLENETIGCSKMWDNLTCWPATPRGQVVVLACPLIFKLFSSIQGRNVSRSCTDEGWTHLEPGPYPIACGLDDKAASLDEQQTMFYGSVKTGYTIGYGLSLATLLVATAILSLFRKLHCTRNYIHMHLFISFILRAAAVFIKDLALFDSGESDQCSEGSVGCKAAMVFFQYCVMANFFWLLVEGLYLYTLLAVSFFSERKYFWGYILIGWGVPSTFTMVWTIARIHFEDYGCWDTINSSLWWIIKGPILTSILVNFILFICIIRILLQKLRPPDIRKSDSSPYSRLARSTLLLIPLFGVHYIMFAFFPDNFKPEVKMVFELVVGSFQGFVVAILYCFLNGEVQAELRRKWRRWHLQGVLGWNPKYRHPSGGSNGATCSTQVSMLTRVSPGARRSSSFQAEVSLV

T3: human VPAC2 receptor (human) (UniProt P41587)
T3 sequence: T1 sequence (P41587 24-438)

T4: rat VPAC2 receptor (rat, UniProt P35000)
T4 sequence: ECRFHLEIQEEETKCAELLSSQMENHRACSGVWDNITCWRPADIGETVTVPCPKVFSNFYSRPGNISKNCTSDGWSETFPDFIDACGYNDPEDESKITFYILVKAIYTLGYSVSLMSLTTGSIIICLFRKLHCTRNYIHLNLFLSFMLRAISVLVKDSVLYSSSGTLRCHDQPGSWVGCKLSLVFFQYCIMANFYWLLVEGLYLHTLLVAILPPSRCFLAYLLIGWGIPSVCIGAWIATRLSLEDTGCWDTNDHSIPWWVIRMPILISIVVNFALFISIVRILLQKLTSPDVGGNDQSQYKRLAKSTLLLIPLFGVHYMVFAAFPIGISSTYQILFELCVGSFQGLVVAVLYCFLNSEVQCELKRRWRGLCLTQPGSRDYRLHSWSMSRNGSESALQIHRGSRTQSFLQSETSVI

T5: rat VPAC1 receptor (rat, UniProt P30083)
T5 sequence: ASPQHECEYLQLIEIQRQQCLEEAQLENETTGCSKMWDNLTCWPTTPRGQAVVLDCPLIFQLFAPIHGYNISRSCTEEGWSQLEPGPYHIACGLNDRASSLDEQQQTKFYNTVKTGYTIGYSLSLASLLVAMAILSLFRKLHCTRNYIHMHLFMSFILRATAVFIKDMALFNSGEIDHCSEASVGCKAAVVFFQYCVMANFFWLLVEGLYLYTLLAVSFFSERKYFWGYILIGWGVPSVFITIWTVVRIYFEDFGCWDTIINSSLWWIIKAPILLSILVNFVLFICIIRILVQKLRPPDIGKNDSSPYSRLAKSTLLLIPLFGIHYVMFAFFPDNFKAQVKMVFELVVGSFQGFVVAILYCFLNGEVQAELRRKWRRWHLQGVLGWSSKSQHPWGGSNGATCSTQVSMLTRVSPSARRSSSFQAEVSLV

B1: P81 (peptide)
peptide: Hexanoyl-HSDAVFTDNYTRLRKQVAAKKYLQSIKNSRTSPPPK([γGlu-Palmitoyl])-NH2
SMILES: CCCCCCCCCCCCCCCC(=O)N[C@@H](CCC(=O)NCCCC[C@H](NC(=O)[C@@H]1CCCN1C(=O)[C@@H]1CCCN1C(=O)[C@@H]1CCCN1C(=O)[C@H](CO)NC(=O)[C@@H](NC(=O)[C@H](CCCNC(=N)N)NC(=O)[C@H](CO)NC(=O)[C@H](CC(N)=O)NC(=O)[C@H](CCCCN)NC(=O)[C@@H](NC(=O)[C@H](CO)NC(=O)[C@H](CCC(N)=O)NC(=O)[C@H](CC(C)C)NC(=O)[C@H](Cc1ccc(O)cc1)NC(=O)[C@H](CCCCN)NC(=O)[C@H](CCCCN)NC(=O)[C@H](C)NC(=O)[C@H](C)NC(=O)[C@@H](NC(=O)[C@H](CCC(N)=O)NC(=O)[C@H](CCCCN)NC(=O)[C@H](CCCNC(=N)N)NC(=O)[C@H](CC(C)C)NC(=O)[C@H](CCCNC(=N)N)NC(=O)[C@@H](NC(=O)[C@H](Cc1ccc(O)cc1)NC(=O)[C@H](CC(N)=O)NC(=O)[C@H](CC(=O)O)NC(=O)[C@@H](NC(=O)[C@H](Cc1ccccc1)NC(=O)[C@@H](NC(=O)[C@H](C)NC(=O)[C@H](CC(=O)O)NC(=O)[C@H](CO)NC(=O)[C@H](Cc1c[nH]cn1)NC(=O)CCCCC)C(C)C)[C@@H](C)O)[C@@H](C)O)C(C)C)[C@@H](C)CC)[C@@H](C)O)C(N)=O)C(=O)O
B2: P118 (peptide)
peptide: Hexanoyl-HSDAVFTDNYTRLRKQVAAKKYLQSIKNSRTSPPPK(Trp)-NH2
SMILES: CCCCCC(=O)N[C@@H](Cc1c[nH]cn1)C(=O)N[C@@H](CO)C(=O)N[C@@H](CC(=O)O)C(=O)N[C@@H](C)C(=O)N[C@H](C(=O)N[C@@H](Cc1ccccc1)C(=O)N[C@H](C(=O)N[C@@H](CC(=O)O)C(=O)N[C@@H](CC(N)=O)C(=O)N[C@@H](Cc1ccc(O)cc1)C(=O)N[C@H](C(=O)N[C@@H](CCCNC(=N)N)C(=O)N[C@@H](CC(C)C)C(=O)N[C@@H](CCCNC(=N)N)C(=O)N[C@@H](CCCCN)C(=O)N[C@@H](CCC(N)=O)C(=O)N[C@H](C(=O)N[C@@H](C)C(=O)N[C@@H](C)C(=O)N[C@@H](CCCCN)C(=O)N[C@@H](CCCCN)C(=O)N[C@@H](Cc1ccc(O)cc1)C(=O)N[C@@H](CC(C)C)C(=O)N[C@@H](CCC(N)=O)C(=O)N[C@@H](CO)C(=O)N[C@H](C(=O)N[C@@H](CCCCN)C(=O)N[C@@H](CC(N)=O)C(=O)N[C@@H](CO)C(=O)N[C@@H](CCCNC(=N)N)C(=O)N[C@H](C(=O)N[C@@H](CO)C(=O)N1CCC[C@H]1C(=O)N1CCC[C@H]1C(=O)N1CCC[C@H]1C(=O)N[C@@H](CCCCNC(=O)[C@@H](N)Cc1c[nH]c2ccccc12)C(N)=O)[C@@H](C)O)[C@@H](C)CC)C(C)C)[C@@H](C)O)[C@@H](C)O)C(C)C
B3: P309 (peptide)
peptide: HSDAVFTDNYTRLRXQVAAXKYLQSIKNSRTSPPP
modifications: N-terminal hexanoyl (C6); Aib (amino isobutyric acid) at positions 15 and 20; C-terminal amide (-NH2)

Key:
human VPAC2 [1] = biological target: T1, human VPAC2; assay: DiscoveRx cAMP in vitro potency, human VPAC2; format: cell-based
Procedure: (§1) Also, the cells are washed twice. The cells are incubated in assay buffer plus IBMX for 15 minutes at room temperature. […] The stimuli are present for 30 minutes. Then, the assay buffer is gently removed. […] At day 3, the assay described above for the VPAC2 receptor cell line is performed.

human VPAC2 [2] = biological target: T1, human VPAC2; assay: Alpha screen cAMP in vitro potency, human VPAC2; format: cell-based
Procedure: Alpha screen: Cells are washed in the culture flask once with PBS. Then, the cells are rinsed with enzyme free dissociation buffer. The dissociated cells are removed. The cells are then spun down and washed in stimulation buffer. For each data point, 50,000 cells suspended in stimulation buffer are used. To this buffer, Alpha screen acceptor beads are added along with the stimuli. This mixture is incubated for 60 minutes. Lysis buffer and Alpha screen donor beads are added and are incubated for 60 to 120 minutes. The Alpha screen signal (indicative of intracellular cAMP levels) is read in a suitable instrument (e.g. AlphaQuest from Perlin-Elmer). Steps including Alpha screen donor and acceptor beads are performed in reduced light.

human VPAC2 [3] = biological target: T1, human VPAC2; assay: Filter binding assay, human VPAC2 membranes, 125I-labeled VIP tracer
Procedure: (§2) For this assay, the solutions and equipment include:
(§3) Presoak solution: 0.5% Polyethyleneamine in Aqua dest.
(§4) Buffer for flushing filter plates: 25 mM […] pH 7.4
(§5) Blocking buffer: 25 mM HEPES pH 7.4; 0.2% protease free BSA
(§6) Assay buffer: 25 mM HEPES pH 7.4; 0.5% protease free BSA
(§7) Dilution and assay plate: PS-Microplate, U form
(§8) Filtration Plate Multiscreen FB Opaque Plate; […] Type B Glasfiber filter
(§9) In order to prepare the filter plates, aspirate the presoak solution by vacuum filtration. Flush the plates twice with 200 μL flush buffer. Add 200 μL blocking buffer to the filter plate. The filter plate is then incubated […] for 1 hour at room temperature.
(§10) Fill the assay plate with 25 μL assay buffer, 25 μL membranes (2.5 μg) suspended in assay buffer, 25 μL compound (agonist) in assay buffer, and 25 μL tracer (about 40000 cpm) in assay buffer. Incubate the filled plate for 1 hour with shaking.
(§11) Conduct the transfer from assay plate to filter plate. Aspirate the blocking buffer by vacuum filtration and wash two times with flush buffer. Transfer 90 μL from the assay plate to the filter plate. Aspirate the 90 μL transferred from assay plate and wash three times with 200 μL flush buffer. Remove the plastic support. Dry for 1 hour at 60° C. Add 30 μL Microscint. Perform the count.

human VPAC1 [4] = biological target: T2, human VPAC1; assay: Filter binding assay, human VPAC1 membranes, 125I-labeled VIP tracer; parameters: expressed in transfected cells
Procedure: as §2, §3, §4, §5, §6, §7, §8, §9, §10, §11

human PAC1 [5] = biological target: T6, human PAC1 (Homo sapiens, UniProt P41586); assay: cell-based
Procedure: as §1

human PAC1 [6] = biological target: T6, human PAC1; assay: biochemical
Procedure: as §2, §3, §4, §5, §6, §7, §8, §9, §10, §11

human VPAC1 [7] = biological target: T2, human VPAC1; assay: DiscoveRx cAMP in vitro potency, human VPAC1; format: cell-based; parameters: expressed in transfected cells; host or cells: CHO-PO, transient transfection (Lipofectamine)
Procedure: as §1

[8] = biological target: T3, human VPAC2 receptor (human)
rat VPAC2 receptor = biological target: T4, rat VPAC2 receptor; assay: cell-based or functional assay
rat VPAC1 receptor = biological target: T5, rat VPAC1 receptor; assay: cell-based or functional assay

T6 sequence (P41586 21-468): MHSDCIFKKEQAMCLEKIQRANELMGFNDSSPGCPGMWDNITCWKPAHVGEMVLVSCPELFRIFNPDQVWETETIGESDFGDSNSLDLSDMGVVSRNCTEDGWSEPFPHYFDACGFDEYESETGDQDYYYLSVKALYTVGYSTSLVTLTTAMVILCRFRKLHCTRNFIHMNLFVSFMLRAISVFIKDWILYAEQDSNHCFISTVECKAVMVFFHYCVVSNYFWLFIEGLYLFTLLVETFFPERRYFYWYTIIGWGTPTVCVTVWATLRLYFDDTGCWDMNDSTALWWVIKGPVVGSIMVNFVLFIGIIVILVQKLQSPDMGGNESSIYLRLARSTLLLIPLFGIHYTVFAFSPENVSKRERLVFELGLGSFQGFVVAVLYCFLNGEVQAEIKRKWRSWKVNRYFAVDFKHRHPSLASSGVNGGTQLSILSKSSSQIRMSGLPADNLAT

Row | Molecule | EC50 (human VPAC2 [1]) | EC50 (human VPAC2 [2]) | IC50 (human VPAC2 [3]) | IC50 (human VPAC1 [4]) | EC50 (nM) for cAMP generation, Alpha Screen [8] | EC50 for cAMP generation, DiscoveRx (rat VPAC1 receptor) | also measured
1 | CCCCCCCCCCCCCCCC(=O)N[C@@H](CCC(=O)NCCCC[C@H](NC(=O)[C@@H]1CCCN1C(=O)[C@@H]1CCCN1C(=O)[C@@H]1CCCN1C(=O)[C@H](CO)NC(=O)[C@@H](NC(=O)[C@H](CCCNC(=N)N)NC(=O)[C@H](CO)NC(=O)[C@H](CC(N)=O)NC(=O)[C@H](CCCCN)NC(=O)[C@@H](NC(=O)[C@H](CO)NC(=O)[C@H](CCC(N)=O)NC(=O)[C@H](CC(C)C)NC(=O)[C@H](Cc1ccc(O)cc1)NC(=O)[C@H](CCCCN)NC(=O)[C@H](CCCCN)NC(=O)[C@H](C)NC(=O)[C@H](C)NC(=O)[C@@H](NC(=O)[C@H](CCC(N)=O)NC(=O)[C@H](CCCCN)NC(=O)[C@H](CCCNC(=N)N)NC(=O)[C@H](CC(C)C)NC(=O)[C@H](CCCNC(=N)N)NC(=O)[C@@H](NC(=O)[C@H](Cc1ccc(O)cc1)NC(=O)[C@H](CC(N)=O)NC(=O)[C@H](CC(=O)O)NC(=O)[C@@H](NC(=O)[C@H](Cc1ccccc1)NC(=O)[C@@H](NC(=O)[C@H](C)NC(=O)[C@H](CC(=O)O)NC(=O)[C@H](CO)NC(=O)[C@@H](N)Cc1c[nH]cn1)C(C)C)[C@@H](C)O)[C@@H](C)O)C(C)C)[C@@H](C)CC)[C@@H](C)O)C(N)=O)C(=O)O [Agonist P80] (H-HSDAVFTDNYTRLRKQVAAKKYLQSIKNSRTSPPPK([γGlu-Palmitoyl])-NH2) | 2.8 nM | 1.82 nM | 31.6 nM | 284 nM |  |  | 
2 | HSDAVFTDNYTRLRKQVAAKKYLQSIKNSRTSPPP-NH2 [Agonist P5] | 1.21 nM | 1.5 nM | 0.67 nM | 56.7 nM |  |  | EC50 (human PAC1 [5]): 30 nM; IC50 (human PAC1 [6]): 234 nM; EC50 (human VPAC1 [7]): 1.1 nM
3 | Ac-HSDAVFTDNYTRLRKQVAAKKYLQSIKNSRTSPPP-NH2 [Agonist P32] | 0.65 nM | 0.32 nM | 0.89 nM | 38.3 nM |  |  | EC50 (human PAC1 [5]): 125 nM; EC50 (human VPAC1 [7]): 8.24 nM
4 | B1 |  |  |  |  | 0.01 nM | 0.8 nM | EC50 (nM) for cAMP generation, DiscoveRx [8]: 0.18 nM; EC50 for cAMP generation, DiscoveRx (rat VPAC2 receptor): 0.05 nM
5 | HSDAVFTDNYTRLRKAAAAKKYLQSIKNSRTSPPP-NH2 [P97] |  |  |  |  | 0.64 nM | 0.3 nM | 
6 | B2 |  |  |  |  |  | 0.47 nM | 
7 | B3 |  |  |  |  | 0.16 nM |  | EC50 for cAMP generation, DiscoveRx (rat VPAC2 receptor): 0.05 nM
